Patent US20070104785A1, “TABLETS OF LINEZOLID FORM III AND PROCESSES FOR THEIR PREPARATION” (priority 2005, published 2007)

Assay: Gelling tendency when the solid dosage form contacts water
Format: physicochemical
Details: in words
Text: Linezolid Form I is known from the publication, Brickner S J et al. (J. Med. Chem. 39 (3), 673-679, 1996). U.S. Pat. No. 6,559,305 discloses linezolid Form II. Tablets containing linezolid Form II are known from U.S. Pat. No. 6,514,529. The PCT application WO 05035530 discloses crystalline Form III of linezolid. […]. The gel formation leads to an erratic dissolution of the linezolid from the dosage form. A dosage form should deliver a drug in a reproducible way so that a maximum therapeutic effect can be achieved. An unpredictable release from the dosage form can compromise efficacy. The gelling tendency of linezolid Form III would discourage its formulation into solid dosage forms.
Without wishing to be bound by any theory, the following explanation is given for mechanisms involved with the solid dosage form of the present invention that provide a reproducible dissolution profile. […]. When linezolid Form III crystal comes in contact with water, the surface of the crystal dissolves and the dissolved linezolid Form III instead of spreading in water tends to stick to the crystal surface to form a gel layer around the crystal. The gel formation around the crystal acts as a barrier impeding further contact with water, which in turn retards the solubilization of linezolid Form III. […]

- gelling tendency in contact with water: exhibits a gelling tendency
Compound: CC(=O)NC[C@H]1CN(c2ccc(N3CCOCC3)c(F)c2)C(=O)O1 [Linezolid Form III, (S)—N—[[3-[3-Fluoro-4-(4-morpholinyl)phenyl]-2-oxo-5-oxazolidinyl]methyl]-acetamide]
